Measured values: patent publication EP0605261B1, “Use of a flavone derivative as taste modifier and a method of modifying taste” (SAN-EI GEN F.F.I., INC., priority 1992, dated 1994)

Legend:
Assay type in all cases: in vivo
[1] = Sensory test (limiting method): enhancing the sourness of acid sugar solution; set-up: key: (equivalent citric acid content / citric acid content with flavone) × 100; conditions: citric acid 1.000 (g), flavone derivative (I) 0.00001 (g), 8 panellers; for Value of enhancing the sourness Ascending system: ascending system (from low concentration); for Value of enhancing the sourness Descending system: descending system (from high concentration)
Experimental: Compounds 1 to 11 of the flavone derivative (I) were used as a taste modifier to prepare acid sugar solution having compositions as follows:
As a control, 21 types of acid sugar solutions are used. In the control, the flavone derivative (I) is removed from the above composition and the content of citric acid is varied from 1.000 g to 1.500 g by 0.025 g.
Sensory tests were carried out by 8 trained panellers in accordance with a limiting method described in the Hand Book of Sensory evaluation, edited by Research Committee of sensory evaluation, Union of Japanese Scientists and Engineers, p.398 (1973) in use of acid sugar solutions containing respective flavone derivatives (I) and another acid sugar solutions having a various content of citric acid.
As for the content of citric acid, two types sensory tests were conducted, one was an ascending system (testing from solution with low concentration) and another was a descending system (testing from solution with high concentration).
The sensory evaluation was made by a value of enhancing the sourness. The value of enhancing the sourness was calculated by the following formula based on the content of citric acid in acid sugar solutions with varied concentration of citric acid, which has an equivalent stimulation with an acid sugar solution containing the flavone derivative (I) Value of enhancing the sourness = (content of citric acid in acid sugar solution sensed as an equivalent stimulation/content of citric acid in acid sugar solution containing the flavone derivative (I)) x 100 [formula]

[2] = Sensory test: body and deliciousness (soft candy); conditions: 0.00001 (g) Compound 1, 8 panellers
Experimental: Compound 1 of the flavone derivative (I) was used as a taste modifier. Gelatin which was swelled in advance with a part of water, followed by heating to dissolve, granulated sugar, thick malt syrup and the remaining water was mixed, followed by boiling down to 130°C. Then, fondant paste, vegetable oils and fats, emulsifier, colorant and the flavone derivative (I) were added thereto, thereby preparing flavone derivative (I)-containing soft candy. Alternatively, flavone derivative (I) free soft candy was prepared as a control by the same method.
Sensory tests for obtained soft candy were conducted by 8 panellers comprised of 6 males and 2 females at the age from 20 to 40.

[3] = Sensory test: refreshness, its continuity and quality of taste (hard candy); conditions: 0.1 (w/w)% flavor composition D (0.0001 (g) Compound 1) vs C, 8 panellers
Experimental: Compound 1 of the flavone derivative (I) was used as a taste modifier. Hard candy containing the above flavor composition C (control) or D (containing the flavone derivative (I)) was prepared.
First, 60 g of sugar, 40 g of thin malt syrup and 20 g of water were mixed and heated up to about 150°C to boil down, and then allowed to cool to about 120 °C while stirring. Next, the above flavor composition C was added thereto such that 0.1 (w/w)% of the flavor composition was contained and it is poured into a box, thereby preparing flavone derivative (I) free hard candy.
Alternatively, the flavor composition D was used in stead of the flavor composition C to prepare flavone derivative (I)-containing hard candy in accordance with the same method.
Sensory tests for obtained hard candy were carried out by 8 panellers comprised of 6 males and 2 females at the age from 20 to 40.

[4] = Five points evaluation test: saltiness and savor modifying effect (salted squid); set-up: key: five-point scale; untreated standard scored 2; conditions: average points of 5 panellers (2: no changes)
Experimental: Compound 5 of the flavone derivative (I) was used as a taste modifier. To commercially available salted squids, 1, 0.1 and 0.01 ppm of the flavone derivative (I) was added respectively to prepare samples. Sensory tests were carried out for the saltiness and the savor of salted squid. Flavone derivative (I) free salted squids were used as standards.
(§1) The sensory tests were conducted by 5 trained panellers to examine saltiness modifying effect (so called saltiness adapting effect) and savor modifying effect.
(§2) Each sample solution was evaluated assuming that the standard solution has the point of 2.

[5] = Sensory test: body and deliciousness (bread); conditions: 0.00002 (g) Compound 5, 8 panellers
Experimental: Compound 5 of the flavone derivative (I) was used as a taste modifier. Strong flour, yeast food, bread yeast and water were mixed and fermented for four hours at 28°C. Dough materials comprising strong flour, sugar, powdered skim milk, shortening and water, and the flavone derivative (I) were added thereto and subjected to dough process, followed by baking for 25 minutes at 220°C, thereby preparing bread. Flavone derivative (I) free bread was prepared in the same manner as a control.
Sensory tests for obtained bread were conducted by 8 panellers comprised of 6 males and 2 females at the age from 20 to 40.

[6] = Five points evaluation test: saltiness and brackish taste modifying effect (soy sauce with low salt concentration); set-up: key: five-point scale; additive-free standard solution scored 2; conditions: average points of 5 panellers (2: no changes)
Experimental: Compound 5 of the flavone derivative (I) was used as a taste modifier. To commercially available soy sauce with low salt concentration (salt concentration: 7 w/w%), 1, 0.1 and 0.01 ppm of the flavone derivative (I) was added respectively to prepare sample solutions. Sensory tests were carried out for the respective concentrations of sample solutions and 1/2 diluted solutions thereof. Flavone derivative (I) free solutions were used as standard solutions.
The sensory tests were conducted by 5 trained panellers to examine saltiness modifying effect (so called saltiness adapting effect) and brackish taste modifying effect.
as §2

[7] = Five points evaluation test: saltiness and savor modifying effect (ham made of pork loin); conditions: Ham made of pork loint, average points of 5 panellers (2: no changes)
Experimental: Compound 6 of the flavone derivative (I) were used as a taste modifier. Ham made of pork loin was prepared by a general method, in use of pickle solutions containing the flavone derivative (I) in the amount of 1, 0.1 and 0.01 ppm and flavone derivative (I) free standard pickle solution, respectively. Sensory tests were carried out for modifying effects of the saltiness and the savor.
as §1, §2
The pickle solution containing the above was prepared and cooled for a night. Then, raw meat (native pork) was molded and the pickle solution was injected at a rate of 120% to the molded meat. After injection, the molded meat was tumbled with tumbler (12 R. P. M./60 minutes) and salted for a night. It was packed in a container and subjected to dry at 60°C for 60 minutes, smoke at 70°C for 40 minutes and steam at 78°C (the temperature of the center raised to 70°C) to finish the processing. The processed meat was cooled for a night and evaluated.

[8] = Sensory test: refreshness, its continuity and quality of taste (mouth refreshing agent); conditions: 0.1 (w/w)% flavor composition F (0.00005 (g) Compound 9) vs E, 8 panellers
Experimental: Compound 9 of the flavone derivative (I) was used as a taste modifier. Mouth refreshing agent comprising the above flavor composition E (control) or F (containing the flavone derivative (I)) was prepared.
First, 30 g of ethanol, 10 g of glycerin, 2 g of polyoxyethylene hardened castor oil, 0.1 g of sodium saccharin, 0.005 g of chlorhexidine and 58 g of water were mixed, and the above flavor composition E was added thereto such that 0.1 (w/w)% of the flavor compositon was contained, thereby preparing flavone derivative (I) free mouth refreshing agent. Alternatively, the flavor composition F was used in stead of the flavor composition E to prepare flavone derivative (I)-containing mouth refreshing agent.
Sensory tests for obtained mouth refreshing agents were carried out by 8 panellers comprised of 6 males and 2 females at the age from 20 to 40.

[9] = 0.01 ppm, Soy sauce 1/2 dilution
[10] = 0.01 ppm, Soy sauce Undiluted solution
[11] = 0.10 ppm, Soy sauce 1/2 dilution
[12] = 0.10 ppm, Soy sauce Undiluted solution
[13] = 1.00 ppm, Soy sauce 1/2 dilution
[14] = 1.00 ppm, Soy sauce Undiluted solution

COc1ccc(-c2cc(=O)c3c(OC)c(OC)c(OC)cc3o2)cc1OC [Compound 1, 3',4',5,6,7-pentamethoxyflavone]
Value of enhancing the sourness Ascending system [1]: 119
Value of enhancing the sourness Descending system [1]: 121
Body: Those who sensed no difference [2]: 1 number of people
Body: Those who sensed the flavone derivative (I) additive is better [2]: 7 number of people
Deliciousness: Those who sensed no difference [2]: 0 number of people
Deliciousness: Those who sensed the flavone derivative (I) additive is better [2]: 8 number of people
Quality of taste: Those who sensed no difference [2]: 0 number of people
Quality of taste: Those who sensed the flavone derivative (I) additive is better [2]: 8 number of people
Continuity of the refreshness: Those who sensed D additive is better [3]: 8 number of people
Continuity of the refreshness: Those who sensed no difference [3]: 0 number of people
Quality of taste: Those who sensed D additive is better [3]: 6 number of people
Quality of taste: Those who sensed no difference [3]: 2 number of people
Refreshness: Those who sensed D additive is better [3]: 7 number of people
Refreshness: Those who sensed no difference [3]: 1 number of people

COc1cc(OC)c2c(=O)cc(-c3ccc(OC)c(OC)c3)oc2c1 [Compound 5, 3',4',5,7-tetramethoxyflavone]
Saltiness and Savor Modifying Effect: Saltiness ([4]; 0.01 ppm): 3.0
Saltiness and Savor Modifying Effect: Savor ([4]; 0.01 ppm): 3.6
Saltiness and Savor Modifying Effect: Total evaluation ([4]; 0.01 ppm): 3.4
Saltiness and Savor Modifying Effect: Saltiness ([4]; 0.10 ppm): 3.4
Saltiness and Savor Modifying Effect: Savor ([4]; 0.10 ppm): 3.8
Saltiness and Savor Modifying Effect: Total evaluation ([4]; 0.10 ppm): 3.6
Saltiness and Savor Modifying Effect: Saltiness ([4]; 1.00 ppm): 3.8
Saltiness and Savor Modifying Effect: Savor ([4]; 1.00 ppm): 4.0
Saltiness and Savor Modifying Effect: Total evaluation ([4]; 1.00 ppm): 3.8
Value of enhancing the sourness Ascending system [1]: 118
Value of enhancing the sourness Descending system [1]: 121
Body: Those who sensed no difference [5]: 1 number of people
Body: Those who sensed the flavone derivative (I) additive is better [5]: 7 number of people
Deliciousness: Those who sensed no difference [5]: 2 number of people
Deliciousness: Those who sensed the flavone derivative (I) additive is better [5]: 6 number of people
Quality of taste: Those who sensed no difference [5]: 1 number of people
Quality of taste: Those who sensed the flavone derivative (I) additive is better [5]: 7 number of people
Brackish Taste Modifying Effect [6, 9]: 3.6
Saltiness Modifying Effect [6, 9]: 3.8
Brackish Taste Modifying Effect [6, 10]: 3.4
Saltiness Modifying Effect [6, 10]: 3.6
Brackish Taste Modifying Effect [6, 11]: 4.0
Saltiness Modifying Effect [6, 11]: 4.0
Brackish Taste Modifying Effect [6, 12]: 3.4
Saltiness Modifying Effect [6, 12]: 3.6
Brackish Taste Modifying Effect [6, 13]: 4.0
Saltiness Modifying Effect [6, 13]: 4.4
Brackish Taste Modifying Effect [6, 14]: 4.0
Saltiness Modifying Effect [6, 14]: 4.0

COc1ccc(-c2cc(=O)c3c(OC)cc(OC)c(OC)c3o2)cc1 [Compound 6, 5,7,8,4'-tetramethoxyflavone]
Value of enhancing the sourness Ascending system [1]: 120
Value of enhancing the sourness Descending system [1]: 123
Saltiness and Savor Modifying Effect: Saltiness ([7]; 0.10 ppm in pickle solution): 3.0
Saltiness and Savor Modifying Effect: Savor ([7]; 0.10 ppm in pickle solution): 3.0
Saltiness and Savor Modifying Effect: Total evaluation ([7]; 0.10 ppm in pickle solution): 3.0
Saltiness and Savor Modifying Effect: Saltiness ([7]; 1.00 ppm in pickle solution): 3.4
Saltiness and Savor Modifying Effect: Savor ([7]; 1.00 ppm in pickle solution): 3.4
Saltiness and Savor Modifying Effect: Total evaluation ([7]; 1.00 ppm in pickle solution): 3.4

COc1ccc(-c2cc(=O)c3c(O)c(OC)c(OC)c(OC)c3o2)cc1 [Compound 9, 5-hydroxy-4',6,7,8-tetramethoxyflavone]
Value of enhancing the sourness Ascending system [1]: 117
Value of enhancing the sourness Descending system [1]: 119
Continuity of refreshness: Those who sensed F additive is better [8]: 8 number of people
Continuity of refreshness: Those who sensed no difference [8]: 0 number of people
Quality of taste: Those who sensed F additive is better [8]: 6 number of people
Quality of taste: Those who sensed no difference [8]: 2 number of people
Refreshness: Those who sensed F additive is better [8]: 7 number of people
Refreshness: Those who sensed no difference [8]: 1 number of people
